{
  "source": "paper PMC8766875",
  "about": "(Nature biotechnology, 2021)",
  "key": {"[1]": {"test_system": "swine", "assay": "Pharmacodynamic response in dosed swine", "format": "in vivo"}, "[2]": {"set-up": "species or system swine (female Yorkshire)", "settings": "in vivo"}, "[3]": {"settings": "cited from earlier work"}, "[4]": {"assay": "In vivo pharmacokinetics of insulin and GLP-1 analog in swine", "settings": "removed from dataset"}, "[5]": {"settings": "0.24 mg, injection (intramuscular) and L-SOMA groups"}},
  "data": [
    {"molecule": "CNC[C@H](O)c1ccc(O)c(O)c1", "note": "[epinephrine]", "values": [
      {"measurement": "blood glucose response", "setting": "[1]; [5]", "value": "rapid rise"},
      {"measurement": "heart rate response", "setting": "[1]; [5]", "value": "rapid rise in heart rate"},
      {"measurement": "systemic uptake after endoscopic gavage (negative control)", "setting": "[2]", "value": "negligible uptake"}
    ]},
    {"molecule": "GLP-1", "values": [
      {"measurement": "ability to traverse the stomach lining for systemic uptake", "setting": "[3]; in vivo", "value": "severely limited ability"},
      {"measurement": "bioavailability when using a permeation enhancer", "setting": "[3]; not told", "value": "approximately 1%"}
    ]},
    {"molecule": "adalimumab", "values": [
      {"measurement": "systemic uptake after endoscopic gavage (negative control)", "setting": "[2]", "value": "negligible uptake"}
    ]},
    {"molecule": "recombinant human insulin", "values": [
      {"measurement": "plasma glucose response", "setting": "[1]; 4 IU, injection and L-SOMA groups", "value": "immediate hypoglycemic onset"},
      {"measurement": "plasma insulin level at t=0", "setting": "[4]; one L-SOMA-dosed swine, possible sample contamination", "value": 41.6, "unit": "pM"},
      {"measurement": "peak plasma level", "setting": "[4]; same single L-SOMA-dosed swine, at 45 minutes", "value": 136, "unit": "pM"}
    ]},
    {"molecule": "semaglutide", "values": [
      {"measurement": "oral bioavailability", "setting": "[3]; in vivo, po", "value": "approximately 1%"}
    ]}
  ]
}
